{
  "source": "patent US20260048060A1",
  "about": "“POLYCYCLIC THYROID HORMONE b RECEPTOR AGONIST AND USE THEREOF” (CASCADE PHARMACEUTICALS, INC., priority 2022, published 2026)",
  "data": [
    {"target": "T1, THRβ (Homo sapiens, UniProt P10828)", "T1 construct": "expressed in transfected cells; host or cells: HEK293T", "T1 sequence (P10828 217-461)": "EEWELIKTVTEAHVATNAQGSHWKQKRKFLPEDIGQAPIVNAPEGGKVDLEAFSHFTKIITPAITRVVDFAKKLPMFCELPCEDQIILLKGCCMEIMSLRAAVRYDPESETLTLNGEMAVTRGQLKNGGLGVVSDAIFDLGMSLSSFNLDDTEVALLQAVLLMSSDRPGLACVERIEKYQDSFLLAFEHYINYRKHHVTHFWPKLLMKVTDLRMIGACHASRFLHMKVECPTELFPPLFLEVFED", "experiment": "Reporter gene (GAL4-THRβ-LBD / Dual-Glo luciferase) agonist activity assay in HEK293T cells", "assay_type": "cell-based", "details": "ratio of reporter gene EC50 values THRα/THRβ", "from_the_text": "Experimental Example 1: Detection of THRα and THRβ Agonist Activities of Compounds Based on Reporter Gene Activity Assay Method\n1.1 Construction and Preparation of Plasmids pGAL4-THR-LBD and pG5-Luc\nThe pGAL4-THRα-LBD and pGAL4-THRβ-LBD plasmids used in the reporter gene assay system were constructed by a conventional molecular cloning method comprising the following main steps: the cDNA sequences of THRα (NM_003250) and THRβ (NM_000461) corresponding to the amino acid sequences of THRα (163-407AA) and THRβ (217-461AA) were inserted into the BamHI and NotI enzyme digestion sites of the pGAL4 vector by the PCR technique respectively to obtain the pGAL4-THRα-LBD and pGAL4-THRβ-LBD plasmids; the pG5-Luc (#E249A) and pRL-TK (#E2241) plasmids were purchased from Promega; the plasmids were transfected into the E. coli DH5α by the CaCl2 method, and after further culture and amplification, the plasmids were purified by Plasmid Extraction Kits (TIANGEN, #D107) to obtain the corresponding plasmid DNAs.\n1.2 Co-Transfection of Plasmids into HEK293T Cells and Treatment with Compounds\nThe HEK293T cells were inoculated into a 96-well plate at a density of 1×10^4/well the day before plasmid transfection. Cell transfection was conducted according to the instructions of the transfection reagent FuGENE® HD (Promega, #E2311). The main steps were as follows: taking one well as an example here, the plasmids pGAL4-THRα-LBD or pGAL4-THRβ-LBD, pG5-Luc, and pRL-TK were added in the proportions of 20 ng, 50 ng, and 5 ng to 10 μL of Opti-MEM™ I medium (Gibco, #11058021) and mixed well; subsequently, 0.25 uL of FuGENE® HD was added, mixed well, and then left at room temperature for 5 min; afterwards, 10 μL of the mixture was added to the cell wells containing 100 μL of culture medium. After cell co-transfection for 6 h, the compound was diluted in a 3-fold gradient with dimethyl sulfoxide at the highest concentration of 1 uM. The compound was added to the cell culture medium at a total of 10 concentrations for treatment for 24 h. There were a total of two duplicate wells for each concentration. Triiodothyronine (T3) was used as the positive control.\n1.3 Dual-Glo Luciferase Assay\nAfter the cells were treated with the compound for 24 h, the cells were assayed according to the instructions of Dual-Glo® Luciferase Assay System (Promega, #E2940). The main steps were as follows: 50 μL of culture medium was aspirated from each well and discarded, and then 50 μL of Dual-Glo® Luciferase reagent was added and oscillated at room temperature for 10 min; 80 μL of lysis reaction solution was measured into a white opaque optiPlate-96-well plate, and the luminescence signal value (Firefly-Luc) of the Firefly luciferase was detected using an MD i3x multi-mode microplate reader; 40 μL of Dual-Glo® Stop & Glo® reagent was then added, and oscillated at room temperature for 10 min; the luminescence signal value (Renilla-Luc) of the Renilla luciferase was then detected using an MD i3x multi-mode microplate reader. The Firefly-Luc/Renilla-Luc ratio was used as the activation activity of the compound against THR, and the ratio in the solvent DMSO group was used for normalization; the dose-response curve was fitted with four parameters using the GraphPad Prism6.0 software, and the EC50 value was calculated.", "values": [
      {"smiles": "CNC(=O)c1ccc(OCc2c(Cl)cc(-n3ncc(=O)[nH]c3=O)cc2Cl)cc1", "note": "[Compound 76]", "Selectivity (THRα/THRβ)": "† (†: 5 ≥ THRα/β;)"},
      {"smiles": "CNC(=O)c1ccccc1OCc1c(C)cc(-n2ncc(=O)[nH]c2=O)cc1Cl", "note": "[Compound 61]", "Selectivity (THRα/THRβ)": "† (†: 5 ≥ THRα/β;)"},
      {"smiles": "CNC(=O)c1cscc1OCc1c(Br)cc(-n2nc(C(F)F)c(=O)[nH]c2=O)cc1Br", "note": "[Compound 91]", "Selectivity (THRα/THRβ)": "††† (†††: 20 ≥ THRα/β > 10;)"},
      {"smiles": "[2H]C([2H])([2H])NC(=O)c1ccccc1OCc1c(Cl)cc(-n2nc(C(F)F)c(=O)[nH]c2=O)cc1Cl", "note": "[Compound 104]", "Selectivity (THRα/THRβ)": "†† (††: 10 ≥ THRα/β > 5;)"},
      {"smiles": "CNC(=O)c1ccccc1OCc1c(Cl)cc(-n2nc(C(F)(F)F)c(=O)[nH]c2=O)cc1Cl", "note": "[Compound 52]", "Selectivity (THRα/THRβ)": "† (†: 5 ≥ THRα/β;)"},
      {"smiles": "NC(=O)c1cc(F)ccc1OCc1c(Cl)cc(-n2ncc(=O)[nH]c2=O)cc1Cl", "note": "[Compound 37]", "Selectivity (THRα/THRβ)": "† (†: 5 ≥ THRα/β;)"},
      {"smiles": "Cc1ccc(OCc2c(Br)cc(-n3nc(C(F)F)c(=O)[nH]c3=O)cc2Br)c(C(N)=O)c1", "note": "[Compound 87]", "Selectivity (THRα/THRβ)": "† (†: 5 ≥ THRα/β;)"},
      {"smiles": "CNC(=O)c1ccccc1OCc1c(Cl)cc(-n2nc(C(F)F)c(=O)[nH]c2=O)cc1Br", "note": "[Compound 105]", "Selectivity (THRα/THRβ)": "† (†: 5 ≥ THRα/β;)"},
      {"smiles": "CNC(=O)c1ccccc1OCc1c(Cl)cc(-c2nn(C(F)F)c(=O)[nH]c2=O)cc1Cl", "note": "[Compound 60]", "Selectivity (THRα/THRβ)": "† (†: 5 ≥ THRα/β;)"},
      {"smiles": "NC(=O)c1cc(C2CC2)ccc1OCc1c(Cl)cc(-n2ncc(=O)[nH]c2=O)cc1Cl", "note": "[Compound 82]", "Selectivity (THRα/THRβ)": "†† (††: 10 ≥ THRα/β > 5;)"},
      {"smiles": "CNC(=O)c1ccccc1OCc1c(Cl)cc(-c2nn(C)c(=O)[nH]c2=O)cc1Cl", "note": "[Compound 59]", "Selectivity (THRα/THRβ)": "† (†: 5 ≥ THRα/β;)"},
      {"smiles": "NC(=O)c1cc(C2CCCCC2)ccc1OCc1c(Cl)cc(-n2ncc(=O)[nH]c2=O)cc1Cl", "note": "[Compound 100]", "Selectivity (THRα/THRβ)": "†††† (††††: 100 ≥ THRα/β > 20)"},
      {"smiles": "CCNC(=O)c1ccccc1OCc1c(Cl)cc(-n2ncc(=O)[nH]c2=O)cc1Cl", "note": "[Compound 43]", "Selectivity (THRα/THRβ)": "† (†: 5 ≥ THRα/β;)"},
      {"smiles": "Cc1ccc(OCc2c(Cl)cc(-n3nc(C(F)F)c(=O)[nH]c3=O)cc2Cl)c(C(N)=O)c1", "note": "[Compound 86]", "Selectivity (THRα/THRβ)": "†† (††: 10 ≥ THRα/β > 5;)"},
      {"smiles": "NC(=O)c1cc(C2=CCCC2)ccc1OCc1c(Cl)cc(-n2ncc(=O)[nH]c2=O)cc1Cl", "note": "[Compound 101]", "Selectivity (THRα/THRβ)": "† (†: 5 ≥ THRα/β;)"},
      {"smiles": "NC(=O)c1cc(Cl)ccc1OCc1c(Cl)cc(-n2ncc(=O)[nH]c2=O)cc1Cl", "note": "[Compound 32]", "Selectivity (THRα/THRβ)": "† (†: 5 ≥ THRα/β;)"},
      {"smiles": "[2H]C([2H])(Oc1ccccc1C(=O)NC)c1c(Cl)cc(-n2nc(C(F)F)c(=O)[nH]c2=O)cc1Cl", "note": "[Compound 103]", "Selectivity (THRα/THRβ)": "† (†: 5 ≥ THRα/β;)"},
      {"smiles": "CNC(=O)c1cc(C)ccc1OCc1c(Cl)cc(-n2ncc(=O)[nH]c2=O)cc1Cl", "note": "[Compound 84]", "Selectivity (THRα/THRβ)": "† (†: 5 ≥ THRα/β;)"},
      {"smiles": "NC(=O)c1cc(C2CCCC2)ccc1OCc1c(Cl)cc(-n2ncc(=O)[nH]c2=O)cc1Cl", "note": "[Compound 102]", "Selectivity (THRα/THRβ)": "†† (††: 10 ≥ THRα/β > 5;)"},
      {"smiles": "CNC(=O)c1ccccc1OCc1c(Cl)cc(-n2nc(CF)c(=O)[nH]c2=O)cc1Cl", "note": "[Compound 93]", "Selectivity (THRα/THRβ)": "† (†: 5 ≥ THRα/β;)"},
      {"smiles": "CNC(=O)c1ccccc1OCc1c(Cl)cc(-n2nc(C)c(=O)[nH]c2=O)cc1Cl", "note": "[Compound 51]", "Selectivity (THRα/THRβ)": "† (†: 5 ≥ THRα/β;)"},
      {"smiles": "CNC(=O)c1cc(C)ccc1OCc1c(Cl)cc(-n2nc(C(F)F)c(=O)[nH]c2=O)cc1Cl", "note": "[Compound 88]", "Selectivity (THRα/THRβ)": "† (†: 5 ≥ THRα/β;)"},
      {"smiles": "CNC(=O)c1sccc1OCc1c(Cl)cc(-n2ncc(=O)[nH]c2=O)cc1Cl", "note": "[Compound 47]", "Selectivity (THRα/THRβ)": "† (†: 5 ≥ THRα/β;)"},
      {"smiles": "CNC(=O)c1cscc1OCc1c(Cl)cc(-n2ncc(=O)[nH]c2=O)cc1Cl", "note": "[Compound 46]", "Selectivity (THRα/THRβ)": "† (†: 5 ≥ THRα/β;)"},
      {"smiles": "NC(=O)c1cc(-n2cccc2)ccc1OCc1c(Cl)cc(-n2ncc(=O)[nH]c2=O)cc1Cl", "note": "[Compound 70]", "Selectivity (THRα/THRβ)": "†† (††: 10 ≥ THRα/β > 5;)"},
      {"smiles": "CNC(=O)c1cc(C)ccc1OCc1c(Br)cc(-n2nc(C(F)F)c(=O)[nH]c2=O)cc1Br", "note": "[Compound 89]", "Selectivity (THRα/THRβ)": "† (†: 5 ≥ THRα/β;)"},
      {"smiles": "CNC(=O)c1sccc1OCc1c(Br)cc(-n2nc(C(F)F)c(=O)[nH]c2=O)cc1Br", "note": "[Compound 90]", "Selectivity (THRα/THRβ)": "††† (†††: 20 ≥ THRα/β > 10;)"},
      {"smiles": "NC(=O)c1cc(C2=CCCCC2)ccc1OCc1c(Cl)cc(-n2ncc(=O)[nH]c2=O)cc1Cl", "note": "[Compound 99]", "Selectivity (THRα/THRβ)": "†††† (††††: 100 ≥ THRα/β > 20)"},
      {"smiles": "CNC(=O)c1ccccc1OCc1c(Br)cc(-n2ncc(=O)[nH]c2=O)cc1Br", "note": "[Compound 39]", "Selectivity (THRα/THRβ)": "† (†: 5 ≥ THRα/β;)"},
      {"smiles": "CNC(=O)c1cc(C)ccc1OCc1c(Br)cc(-n2ncc(=O)[nH]c2=O)cc1Br", "note": "[Compound 85]", "Selectivity (THRα/THRβ)": "†††† (††††: 100 ≥ THRα/β > 20)"},
      {"smiles": "Cc1ccc(OCc2c(Br)cc(-n3ncc(=O)[nH]c3=O)cc2Br)c(C(N)=O)c1", "note": "[Compound 83]", "Selectivity (THRα/THRβ)": "†††† (††††: 100 ≥ THRα/β > 20)"},
      {"smiles": "CNC(=O)c1cscc1OCc1c(Cl)cc(-n2nc(C(F)F)c(=O)[nH]c2=O)cc1Cl", "note": "[Compound 62]", "Selectivity (THRα/THRβ)": "†† (††: 10 ≥ THRα/β > 5;)"},
      {"smiles": "Cc1ccc(OCc2c(Cl)cc(-n3ncc(=O)[nH]c3=O)cc2Cl)c(C(N)=O)c1", "note": "[Compound 68]", "Selectivity (THRα/THRβ)": "† (†: 5 ≥ THRα/β;)"},
      {"smiles": "NC(=O)c1cc(Br)ccc1OCc1c(Cl)cc(-n2ncc(=O)[nH]c2=O)cc1Cl", "note": "[Compound 64]", "Selectivity (THRα/THRβ)": "† (†: 5 ≥ THRα/β;)"},
      {"smiles": "CNC(=O)c1sccc1OCc1c(Cl)cc(-n2nc(C(F)F)c(=O)[nH]c2=O)cc1Cl", "note": "[Compound 63]", "Selectivity (THRα/THRβ)": "† (†: 5 ≥ THRα/β;)"},
      {"smiles": "CNC(=O)c1ccccc1OCc1c(Br)cc(-n2nc(C(F)F)c(=O)[nH]c2=O)cc1Br", "note": "[Compound 56]", "Selectivity (THRα/THRβ)": "†† (††: 10 ≥ THRα/β > 5;)"},
      {"smiles": "NC(=O)c1ccccc1OCc1c(Br)cc(-n2nc(C(F)F)c(=O)[nH]c2=O)cc1Br", "note": "[Compound 57]", "Selectivity (THRα/THRβ)": "† (†: 5 ≥ THRα/β;)"}
    ]}
  ]
}
